# In paper PMC5218480 (PLoS ONE, 2017):
# Tested on: MV-4-11 cells
# Experiment: Gene expression microarray analysis (Affymetrix PrimeView) and GSEA
# Format: cell-based, human
# Parameters: RFU PODN (11730768_x_at) / Fold change /veh PODN (11730768_x_at) / RFU LINC00158 (11744669_a_at) / Fold change /veh LINC00158 (11744669_a_at) / RFU DUSP10 (11751237_a_at) / Fold change /veh DUSP10 (11751237_a_at) / RFU ID3 (11757404_x_at) / Fold change /veh ID3 (11757404_x_at) / RFU PLEKHG5 (11737974_s_at) / Fold change /veh PLEKHG5 (11737974_s_at) / RFU LRRC4B (11730491_at) / Fold change /veh LRRC4B (11730491_at) / RFU GIMAP4 (11747438_a_at) / Fold change /veh GIMAP4 (11747438_a_at) / RFU KRT8 (11758183_x_at) / Fold change /veh KRT8 (11758183_x_at) / RFU CNN1 (11734310_a_at) / Fold change /veh CNN1 (11734310_a_at) / RFU VPS37D (11726825_at) / Fold change /veh VPS37D (11726825_at) / RFU C10orf10 (11716522_x_at) / Fold change /veh C10orf10 (11716522_x_at) / RFU KIR2DL2 /// KIR2DL4 /// KIR2DL5A /// KIR2DL5B /// KIR2DS1 /// KIR2DS2 /// KIR2DS3 /// KIR2DS4 /// KIR3DL3 /// KIR3DL3 /// KIR3DS1 (11738374_at) / Fold change /veh KIR2DL2 /// KIR2DL4 /// KIR2DL5A /// KIR2DL5B /// KIR2DS1 /// KIR2DS2 /// KIR2DS3 /// KIR2DS4 /// KIR3DL3 /// KIR3DL3 /// KIR3DS1 (11738374_at) / RFU C1QL1 (11718748_at) / Fold change /veh C1QL1 (11718748_at) / RFU TMPRSS4 (11747572_a_at) / Fold change /veh TMPRSS4 (11747572_a_at) / RFU HAMP (11756126_x_at) / Fold change /veh HAMP (11756126_x_at) / RFU RNFT2 (11725882_a_at) / Fold change /veh RNFT2 (11725882_a_at) / RFU NR4A2 (11747474_a_at) / Fold change /veh NR4A2 (11747474_a_at) / RFU ABCC12 (11746883_a_at) / Fold change /veh ABCC12 (11746883_a_at) / RFU TMEM136 (11760407_x_at) / Fold change /veh TMEM136 (11760407_x_at) / RFU CLDN22 /// WWC2 (11732394_at) / Fold change /veh CLDN22 /// WWC2 (11732394_at) / RFU HLA-DPB1 (11760878_x_at) / Fold change /veh HLA-DPB1 (11760878_x_at) / RFU SPINT1 (11716480_a_at) / Fold change /veh SPINT1 (11716480_a_at) / RFU GAP43 (11754022_s_at) / Fold change /veh GAP43 (11754022_s_at) / RFU A4GNT (11735810_at) / Fold change /veh A4GNT (11735810_at) / RFU PRB3 (11715151_x_at) / Fold change /veh PRB3 (11715151_x_at) / RFU TUBB4B (11761932_at) / Fold change /veh TUBB4B (11761932_at) / RFU CAPN14 (11732068_a_at) / Fold change /veh CAPN14 (11732068_a_at) / RFU TMCC2 (11721928_a_at) / Fold change /veh TMCC2 (11721928_a_at) / RFU IRGQ (11745062_a_at) / Fold change /veh IRGQ (11745062_a_at) / RFU FAM174B (11720279_a_at) / Fold change /veh FAM174B (11720279_a_at) / RFU TMPRSS4 (11748680_a_at) / Fold change /veh TMPRSS4 (11748680_a_at) / RFU FAM212B (11763350_a_at) / Fold change /veh FAM212B (11763350_a_at) / RFU PLEKHG5 (11743358_a_at) / Fold change /veh PLEKHG5 (11743358_a_at) / RFU ZSCAN30 (11745921_a_at) / Fold change /veh ZSCAN30 (11745921_a_at) / RFU CMKLR1 (11741424_a_at) / Fold change /veh CMKLR1 (11741424_a_at) / RFU LOC101060620 /// MAPK8IP1 (11723275_at) / Fold change /veh LOC101060620 /// MAPK8IP1 (11723275_at) / RFU SPTSSB (11747773_x_at) / Fold change /veh SPTSSB (11747773_x_at) / RFU PRSS12 (11739890_at) / Fold change /veh PRSS12 (11739890_at) / RFU BIN1 (11741810_x_at) / Fold change /veh BIN1 (11741810_x_at) / RFU WNT11 (11732464_a_at) / Fold change /veh WNT11 (11732464_a_at) / RFU C10orf10 (11716521_a_at) / Fold change /veh C10orf10 (11716521_a_at) / RFU C5orf56 (11738089_at) / Fold change /veh C5orf56 (11738089_at) / RFU CYB561 (11721691_x_at) / Fold change /veh CYB561 (11721691_x_at) / RFU ANKRD19P (11752326_a_at) / Fold change /veh ANKRD19P (11752326_a_at) / RFU OR2T12 /// OR2T33 /// OR2T8 (11738714_s_at) / Fold change /veh OR2T12 /// OR2T33 /// OR2T8 (11738714_s_at) / RFU VCAN (11748164_a_at) / Fold change /veh VCAN (11748164_a_at) / RFU JSRP1 (11732532_at) / Fold change /veh JSRP1 (11732532_at) / RFU KRTAP10-11 (11738290_x_at) / Fold change /veh KRTAP10-11 (11738290_x_at) / RFU MYO3A (11730013_a_at) / Fold change /veh MYO3A (11730013_a_at) / RFU EBF3 (11725865_a_at) / Fold change /veh EBF3 (11725865_a_at) / RFU CAMK2N1 (11719241_x_at) / Fold change /veh CAMK2N1 (11719241_x_at) / RFU C5orf56 (11738088_a_at) / Fold change /veh C5orf56 (11738088_a_at) / RFU OLFML3 (11715873_a_at) / Fold change /veh OLFML3 (11715873_a_at) / RFU LOC100653217 /// NTM (11731650_a_at) / Fold change /veh LOC100653217 /// NTM (11731650_a_at) / RFU MAPK11 (11762145_a_at) / Fold change /veh MAPK11 (11762145_a_at) / RFU FIZ1 (11724087_x_at) / Fold change /veh FIZ1 (11724087_x_at) / RFU OASL (11726364_x_at) / Fold change /veh OASL (11726364_x_at) / RFU SOX15 (11748057_x_at) / Fold change /veh SOX15 (11748057_x_at) / RFU CD79A (11719716_a_at) / Fold change /veh CD79A (11719716_a_at) / RFU HIST1H1D (11736915_at) / Fold change /veh HIST1H1D (11736915_at) / RFU CASKIN2 (11723855_a_at) / Fold change /veh CASKIN2 (11723855_a_at) / RFU LOC730098 (11760151_x_at) / Fold change /veh LOC730098 (11760151_x_at) / RFU OR4N2 (11742367_at) / Fold change /veh OR4N2 (11742367_at) / RFU PRRT2 (11749266_a_at) / Fold change /veh PRRT2 (11749266_a_at) / RFU SNX32 (11753110_a_at) / Fold change /veh SNX32 (11753110_a_at) / RFU CDHR5 (11726645_a_at) / Fold change /veh CDHR5 (11726645_a_at) / RFU RCAN1 (11760418_a_at) / Fold change /veh RCAN1 (11760418_a_at) / RFU FAM167A (11723789_a_at) / Fold change /veh FAM167A (11723789_a_at) / RFU FAM26E (11764081_at) / Fold change /veh FAM26E (11764081_at) / RFU ISYNA1 (11749810_s_at) / Fold change /veh ISYNA1 (11749810_s_at) / RFU ACY1 (11761880_at) / Fold change /veh ACY1 (11761880_at) / RFU 11764098_at / Fold change /veh 11764098_at / RFU SAMD14 (11745864_x_at) / Fold change /veh SAMD14 (11745864_x_at) / RFU NPB (11741838_a_at) / Fold change /veh NPB (11741838_a_at) / RFU TMPRSS6 (11731388_a_at) / Fold change /veh TMPRSS6 (11731388_a_at) / RFU KRTAP10-2 (11738614_at) / Fold change /veh KRTAP10-2 (11738614_at) / RFU ARHGAP8 /// PRR5-ARHGAP8 (11727945_x_at) / Fold change /veh ARHGAP8 /// PRR5-ARHGAP8 (11727945_x_at) / RFU KRTAP5-7 /// NADSYN1 (11734609_at) / Fold change /veh KRTAP5-7 /// NADSYN1 (11734609_at) / RFU RASL12 (11751679_a_at) / Fold change /veh RASL12 (11751679_a_at) / RFU CDKN2B (11736163_a_at) / Fold change /veh CDKN2B (11736163_a_at) / RFU PRF1 (11729649_at) / Fold change /veh PRF1 (11729649_at) / RFU, ZNF638 /// ZNF638-IT1 / Fold change vs veh, ZNF638 /// ZNF638-IT1 / RFU, PANK3 / Fold change vs veh, PANK3 / RFU, SH3YL1 / Fold change vs veh, SH3YL1 / RFU, ZEB2 / Fold change vs veh, ZEB2 / RFU, NRIP1 / Fold change vs veh, NRIP1 / RFU, PTTG1IP / Fold change vs veh, PTTG1IP / RFU, CAPN2 / Fold change vs veh, CAPN2 / RFU, MED14 / Fold change vs veh, MED14 / RFU, SNORA58 / Fold change vs veh, SNORA58 / RFU, C1orf63 / Fold change vs veh, C1orf63 / RFU, LRRFIP1 / Fold change vs veh, LRRFIP1 / RFU, NDUFAF7 / Fold change vs veh, NDUFAF7 / RFU, SLC12A2 / Fold change vs veh, SLC12A2 / RFU, IBTK / Fold change vs veh, IBTK / RFU, ESF1 / Fold change vs veh, ESF1 / Fold change vs veh, TMEM50B / RFU, TAOK1 / Fold change vs veh, TAOK1 / RFU, ACBD3 / Fold change vs veh, ACBD3 / RFU, TMA16 / Fold change vs veh, TMA16 / RFU, RWDD3 / Fold change vs veh, RWDD3 / RFU, BCAT1 / Fold change vs veh, BCAT1 / RFU, EDEM3 / Fold change vs veh, EDEM3 / RFU, TMEM33 / Fold change vs veh, TMEM33 / RFU, WDR75 / Fold change vs veh, WDR75 / RFU, AHCTF1 / Fold change vs veh, AHCTF1 / RFU, TFRC / Fold change vs veh, TFRC / RFU, ZDHHC17 / Fold change vs veh, ZDHHC17 / RFU, NOM1 / Fold change vs veh, NOM1 / RFU, ARL8B / Fold change vs veh, ARL8B / RFU, ZBTB11 / Fold change vs veh, ZBTB11 / RFU, TAMM41 / Fold change vs veh, TAMM41 / RFU, KIAA1704 /// LOC100996395 / Fold change vs veh, KIAA1704 /// LOC100996395 / RFU, ING1 / Fold change vs veh, ING1 / RFU, TRMT61B / Fold change vs veh, TRMT61B / RFU, FUBP3 / Fold change vs veh, FUBP3 / RFU, TP53 / Fold change vs veh, TP53 / RFU, TNKS2 / Fold change vs veh, TNKS2 / RFU, ZFP14 / Fold change vs veh, ZFP14 / RFU, ACTR2 / Fold change vs veh, ACTR2 / RFU, PPP3R1 / Fold change vs veh, PPP3R1 / RFU, PIK3R1 / Fold change vs veh, PIK3R1 / RFU, HNRNPA1 / Fold change vs veh, HNRNPA1 / RFU, RNF170 / Fold change vs veh, RNF170 / RFU, ZNF28 / Fold change vs veh, ZNF28 / RFU, RNGTT / Fold change vs veh, RNGTT / RFU, OGT / Fold change vs veh, OGT / RFU, BRD1 / Fold change vs veh, BRD1 / RFU, MARS / Fold change vs veh, MARS / RFU, ZNF655 / Fold change vs veh, ZNF655 / RFU, FAHD1 / Fold change vs veh, FAHD1 / RFU, BDP1 / Fold change vs veh, BDP1 / RFU, LRRCC1 / Fold change vs veh, LRRCC1 / RFU, ARID1A / Fold change vs veh, ARID1A / RFU, ZNF146 / Fold change vs veh, ZNF146 / RFU, ZNF330 / Fold change vs veh, ZNF330 / RFU, GPN3 / Fold change vs veh, GPN3 / RFU, C9orf123 / Fold change vs veh, C9orf123 / RFU, N4BP2L2 / Fold change vs veh, N4BP2L2 / RFU, ARFIP1 / Fold change vs veh, ARFIP1 / RFU, FAM179B / Fold change vs veh, FAM179B / RFU, BCL10 / Fold change vs veh, BCL10 / RFU, UHRF1BP1L / Fold change vs veh, UHRF1BP1L / RFU, BET1 / Fold change vs veh, BET1 / RFU, CNOT2 / Fold change vs veh, CNOT2 / RFU, ZNF268 / Fold change vs veh, ZNF268 / Fold change vs veh, ZNF507 / RFU, DGCR2 / Fold change vs veh, DGCR2 / RFU, WDSUB1 / Fold change vs veh, WDSUB1 / Fold change vs veh, HSP90B1 /// MIR3652 / RFU, ADSS / Fold change vs veh, ADSS / RFU, GK / Fold change vs veh, GK / RFU, ZNF148 / Fold change vs veh, ZNF148 / RFU, TAF9 / Fold change vs veh, TAF9 / RFU, SLC1A5 / Fold change vs veh, SLC1A5 / RFU, SLMO2 / Fold change vs veh, SLMO2 / RFU, ABCC4 / Fold change vs veh, ABCC4 / RFU, LOC101060439 /// RAP1B / Fold change vs veh, LOC101060439 /// RAP1B / RFU, RFX7 / Fold change vs veh, RFX7 / RFU, GTPBP10 / Fold change vs veh, GTPBP10 / RFU, CNEP1R1 / Fold change vs veh, CNEP1R1 / RFU, BIVM-ERCC5 /// ERCC5 / Fold change vs veh, BIVM-ERCC5 /// ERCC5 / RFU, ILF3 / Fold change vs veh, ILF3 / RFU 11762660_at / Fold change /veh 11762660_at / RFU VCAN (11757783_s_at) / Fold change /veh VCAN (11757783_s_at) / RFU DDX43 (11728927_at) / Fold change /veh DDX43 (11728927_at) / RFU KRT8 (11758188_x_at) / Fold change /veh KRT8 (11758188_x_at) / RFU NKD1 (11759106_at) / Fold change /veh NKD1 (11759106_at) / RFU SRD5A1 (11742802_a_at) / Fold change /veh SRD5A1 (11742802_a_at) / RFU TPSAB1 /// TPSB2 (11721975_s_at) / Fold change /veh TPSAB1 /// TPSB2 (11721975_s_at) / RFU GSTM3 (11746129_a_at) / Fold change /veh GSTM3 (11746129_a_at) / RFU IL23R (11737362_x_at) / Fold change /veh IL23R (11737362_x_at) / RFU TMEM51 (11727254_a_at) / Fold change /veh TMEM51 (11727254_a_at) / RFU PIWIL2 (11732686_x_at) / Fold change /veh PIWIL2 (11732686_x_at) / RFU ORM1 (11744905_x_at) / Fold change /veh ORM1 (11744905_x_at) / RFU CCDC152 (11743942_at) / Fold change /veh CCDC152 (11743942_at) / RFU ECM1 (11717891_a_at) / Fold change /veh ECM1 (11717891_a_at) / RFU IL23R (11748794_a_at) / Fold change /veh IL23R (11748794_a_at) / RFU TNFAIP8L3 (11732012_x_at) / Fold change /veh TNFAIP8L3 (11732012_x_at) / RFU MBOAT4 (11741988_at) / Fold change /veh MBOAT4 (11741988_at) / RFU 11764193_at / Fold change /veh 11764193_at / RFU TMEM53 (11763286_at) / Fold change /veh TMEM53 (11763286_at) / RFU MAGEB2 (11727129_at) / Fold change /veh MAGEB2 (11727129_at) / RFU TMEM200A (11744735_a_at) / Fold change /veh TMEM200A (11744735_a_at) / RFU CCDC152 (11751479_a_at) / Fold change /veh CCDC152 (11751479_a_at) / RFU FAM211A (11726209_a_at) / Fold change /veh FAM211A (11726209_a_at) / RFU RGS16 (11746705_a_at) / Fold change /veh RGS16 (11746705_a_at) / RFU VCAN (11755009_s_at) / Fold change /veh VCAN (11755009_s_at) / RFU RHOB (11743442_s_at) / Fold change /veh RHOB (11743442_s_at) / RFU RGS16 (11720943_a_at) / Fold change /veh RGS16 (11720943_a_at) / RFU RGS16 (11720944_at) / Fold change /veh RGS16 (11720944_at) / RFU, VPS4B / Fold change vs veh, VPS4B / RFU, CREB1 / Fold change vs veh, CREB1 / RFU, DNAJC13 / Fold change vs veh, DNAJC13 / RFU, GNAQ / Fold change vs veh, GNAQ / RFU, CDK5R1 / Fold change vs veh, CDK5R1 / RFU, ZRANB3 / Fold change vs veh, ZRANB3 / RFU, CUL4A / Fold change vs veh, CUL4A / RFU, CCNY / Fold change vs veh, CCNY / RFU, UFL1 / Fold change vs veh, UFL1 / RFU, COG3 / Fold change vs veh, COG3 / RFU, DIAPH2 / Fold change vs veh, DIAPH2 / RFU, SKA2 / Fold change vs veh, SKA2 / RFU, AFF3 / Fold change vs veh, AFF3 / RFU, LMF1 / Fold change vs veh, LMF1 / RFU, IPO11 / Fold change vs veh, IPO11 / RFU, DFFB / Fold change vs veh, DFFB / RFU, FOXP1 / Fold change vs veh, FOXP1 / RFU, CARD8 / Fold change vs veh, CARD8 / RFU, STRN3 / Fold change vs veh, STRN3 / RFU, ADK / Fold change vs veh, ADK / RFU, RASSF2 / Fold change vs veh, RASSF2 / RFU, WIPF1 / Fold change vs veh, WIPF1 / RFU, LARP1B / Fold change vs veh, LARP1B / RFU, RASA1 / Fold change vs veh, RASA1 / RFU, RB1 / Fold change vs veh, RB1 / RFU, PPFIA1 / Fold change vs veh, PPFIA1 / RFU, MAT2A / Fold change vs veh, MAT2A / RFU, CCT5 / Fold change vs veh, CCT5 / RFU, WDR92 / Fold change vs veh, WDR92 / RFU, CUX1 / Fold change vs veh, CUX1 / RFU, TTC7A / Fold change vs veh, TTC7A / RFU, TMEM135 / Fold change vs veh, TMEM135 / RFU, DEPTOR / Fold change vs veh, DEPTOR / RFU, CPM / Fold change vs veh, CPM / RFU, DNAJB6 / Fold change vs veh, DNAJB6 / RFU, CACNA2D3 / Fold change vs veh, CACNA2D3 / RFU, DTX4 / Fold change vs veh, DTX4 / RFU, TFCP2 / Fold change vs veh, TFCP2 / RFU, GMCL1 /// GMCL1P1 / Fold change vs veh, GMCL1 /// GMCL1P1 / RFU, AEBP2 / Fold change vs veh, AEBP2 / RFU, SNHG1 /// SNORD22 /// SNORD25 /// SNORD26 /// SNORD27 /// SNORD28 /// SNORD29 /// SNORD31 / Fold change vs veh, SNHG1 /// SNORD22 /// SNORD25 /// SNORD26 /// SNORD27 /// SNORD28 /// SNORD29 /// SNORD31 / Fold change (Aza/veh), C12orf56 (ProbeSet 11735607_a_at) / Fold change (ACY-1035/veh), C12orf56 (ProbeSet 11735607_a_at) / Fold change (Aza/veh), FGFR1OP (ProbeSet 11751329_s_at) / Fold change (ACY-1035/veh), FGFR1OP (ProbeSet 11751329_s_at) / Fold change (Aza/veh), VPS36 (ProbeSet 11739960_a_at) / Fold change (ACY-1035/veh), VPS36 (ProbeSet 11739960_a_at) / RFU SYPL1 (11715823_x_at) / Fold change /veh SYPL1 (11715823_x_at) / RFU IGFBP7 (11715501_s_at) / Fold change /veh IGFBP7 (11715501_s_at) / RFU REEP3 (11722064_at) / Fold change /veh REEP3 (11722064_at) / RFU IGLL1 (11728026_x_at) / Fold change /veh IGLL1 (11728026_x_at): dose or concentration left out as unconfirmed
# Conditions: MV-4-11 cells, 48 hours
structure (smiles),measurement,value
Nc1ccc(-c2cccs2)cc1NC(=O)c1ccc2c(c1)cc(C1CC1)n2CCN1CCOCC1 [ACY-1035],Fold change /veh PRSS12 (11739890_at),1.14
